Measurements published in patent publication US20250017207A1 (priority 2021, published 2025).
≈ marks a conversion by molar mass, not a printed value.

Columns and labels:
Format in all cases: cell-based
Gibberella fujikuroi = test: microbe, parasite or virus in culture; conditions: Fusarium fujikuroi, 72 h, read-out: EC50 Value
Fusarium proliferatum = test: Petri plate test, inhibition of mycelial growth (NY/T 1156.2-2006); conditions: 72 h, mycelial growth on PDA plates, 25° C., three days in darkness
From the text: Certain mixture compositions according to the present invention may show a synergistic effect. This occurs whenever the action of an active ingredient combination is greater than the sum of the actions of the individual components. The combined toxicity of two agents can be evaluated by the Co-Toxicity Coefficient (CTC) according to the Sun-YP method (Yun-Pei, Sun. “Toxicity Index-An Improved Method of Comparing the Relative Toxicity of Insecticides.” Journal of Economic Entomology 1(1950):45-53.). A CTC value of less than 80 indicates an antagonistic effect, a CTC value of 80-120 indicates an additive effect, and a CTC value of greater than or equal to 120 indicates a synergistic effect.
Component A represents standard Al, and component B represents the component to be mixed with the standard Al. • ATI (Measured toxicity index of a mixture)=(Standard Al's EC50/Mixture's EC50)*100 • TTI (Theoretical toxicity index of a mixture)=(TIA*PA+TIB*PB)*100 • TIA (Toxicity index of component A)=the EC50 of component A/the EC50 of component A • PA: Percentage of component A in the mixture • TIB (Toxicity index of component B)=the EC50 of component A/the EC50 of component B • PB: Percentage of component B in the mixture […]

Fusarium graminearum = test: microbe, parasite or virus in culture; conditions: 72 h, read-out: EC50 Value

CCOC(=O)/C(C#N)=C(\N)c1ccccc1 [PHM, (Z)-ethyl 2-cyano-3-amino-3-phenylacrylate]
EC50 (Gibberella fujikuroi): 0.197 µg/mL (≈ 0.91 µM) | EC50 (Fusarium proliferatum): 3.08 µg/mL | EC50 (Fusarium graminearum): 0.0307 µg/mL (≈ 0.142 µM)

O=C(N[C@@H]1CC[C@@H]1c1ccc(Cl)cc1Cl)c1cccnc1C(F)(F)F [cylcobutrifluram, N-[(1,2 cis)-2-(2,4-dichlorophenyl)cyclobutyl]-2-(trifluoromethyl)pyridine-3-carboxamide]
EC50 (Gibberella fujikuroi): 0.75 µg/mL (≈ 1.93 µM) | EC50 (Fusarium proliferatum): 0.882 µg/mL | EC50 (Fusarium graminearum): 0.0222 µg/mL (≈ 0.057 µM)
